Data taken from ChEMBL document CHEMBL1157018, “Synthesis and antibacterial activity of 5-ylidenethiazolidin-4-ones and 5-benzylidene-4,6-pyrimidinediones” (2010).
Converted amounts (≈) assume the structure as drawn.

Tests used:
Assay type in all cases: functional
Staphylococcus aureus [1] = experiment: Antibacterial activity against Staphylococcus aureus ATCC 29213 after 18 to 24 hrs
Enterococcus faecalis = experiment: Antibacterial activity against Enterococcus faecalis ATCC 29212 after 18 to 24 hrs
Escherichia coli = experiment: Antibacterial activity against Escherichia coli ATCC 25922 after 18 to 24 hrs
Pseudomonas aeruginosa = experiment: Antibacterial activity against Pseudomonas aeruginosa ATCC 27853 after 18 to 24 hrs
Staphylococcus aureus [2] = experiment: Antibacterial activity against methicillin-resistant Staphylococcus aureus ATCC 43300 after 18 to 24 hrs
Streptococcus pneumoniae = experiment: Antibacterial activity against Streptococcus pneumoniae ATCC 49619 after 18 to 24 hrs
Streptococcus pyogenes = experiment: Antibacterial activity against Streptococcus pyogenes ATCC 19615 after 18 to 24 hrs

`Cl.N#Cc1ccc(CN2C(=O)C(CCOc3ccc(CCN)cc3)Oc3ccccc32)cc1` (stereo not drawn) showed an MIC (Staphylococcus aureus [1]) of 64 µg/mL and an MIC (Enterococcus faecalis) of 64 µg/mL.
In the case of `COc1cc(C=C2C(=O)NC(=O)NC2=O)cc(OC)c1OC`, the MIC (Staphylococcus aureus [1]) is reported as greater than 128 µg/mL, the MIC (Enterococcus faecalis) is reported as greater than 128 µg/mL and the MIC (Escherichia coli) is reported as greater than 128 µg/mL. For the same compound, the MIC (Pseudomonas aeruginosa) was greater than 128 µg/mL.
For `O=C1NC(=O)C(=Cc2ccc(F)c(F)c2F)C(=O)N1`, the MIC (Staphylococcus aureus [1]) was 32 µg/mL (≈ 118 µM), the MIC (Enterococcus faecalis) was greater than 128 µg/mL and the MIC (Staphylococcus aureus [2]) was 128 µg/mL (≈ 474 µM). The MIC (Escherichia coli) was greater than 128 µg/mL and the MIC (Pseudomonas aeruginosa) was greater than 128 µg/mL.
`O=C1NC(=S)S/C1=C\CC1Oc2ccccc2N(Cc2ccc(Cl)cc2)C1=O` (stereo not drawn) showed an MIC (Staphylococcus aureus [1]) of 32 µg/mL (≈ 74.3 µM), an MIC (Enterococcus faecalis) greater than 128 µg/mL and an MIC (Escherichia coli) greater than 128 µg/mL. The MIC (Pseudomonas aeruginosa) was greater than 128 µg/mL.
Compound `N#Cc1ccc(CN2C(=O)C(C/C=C3\SC(=S)NC3=O)Oc3ccccc32)cc1` (stereo not drawn) has an MIC (Staphylococcus aureus [1]) of 32 µg/mL (≈ 75.9 µM), an MIC (Enterococcus faecalis) of 32 µg/mL (≈ 75.9 µM) and an MIC (Escherichia coli) greater than 128 µg/mL. It also gave an MIC (Pseudomonas aeruginosa) greater than 128 µg/mL.
`Cl.NCCc1ccc(OCCC2Oc3ccccc3N(Cc3ccc(Cl)cc3)C2=O)cc1` (stereo not drawn) was tested, and the MIC (Staphylococcus aureus [1]) was 8 µg/mL and the MIC (Enterococcus faecalis) was 16 µg/mL.
`O=C1NC(=O)/C(=C/c2ccc(F)c(F)c2F)S1` was tested, and the MIC (Staphylococcus aureus [1]) was 32 µg/mL (≈ 123 µM), the MIC (Enterococcus faecalis) was greater than 128 µg/mL and the MIC (Staphylococcus aureus [2]) was 64 µg/mL (≈ 247 µM). For the same compound, the MIC (Escherichia coli) was greater than 128 µg/mL and the MIC (Pseudomonas aeruginosa) was greater than 128 µg/mL.
With `COc1cc(/C=C2\SC(=O)NC2=O)cc(OC)c1OC` the MIC (Staphylococcus aureus [1]) was greater than 128 µg/mL, the MIC (Enterococcus faecalis) was greater than 128 µg/mL and the MIC (Escherichia coli) was greater than 128 µg/mL. It also gave an MIC (Pseudomonas aeruginosa) greater than 128 µg/mL.
In the case of `O=C1NC(=S)S/C1=C\c1ccc(F)c(F)c1F`, the MIC (Staphylococcus aureus [1]) is reported as 0.5 µg/mL (≈ 1.82 µM), the MIC (Enterococcus faecalis) is reported as greater than 128 µg/mL and the MIC (Staphylococcus aureus [2]) is reported as 32 µg/mL (≈ 116 µM). For the same compound, the MBC (Streptococcus pneumoniae) was 64 µg/mL (≈ 232 µM), the MBC (Streptococcus pyogenes) was greater than 128 µg/mL and the MIC (Escherichia coli) was greater than 128 µg/mL. It also gave an MIC (Pseudomonas aeruginosa) greater than 128 µg/mL.
`O=C1NC(=S)S/C1=C\c1ccc(O)c(O)c1O` showed an MIC (Staphylococcus aureus [1]) greater than 128 µg/mL and an MIC (Enterococcus faecalis) greater than 128 µg/mL.
`O=C(O)CN1C(=O)/C(=C/c2ccc(F)c(F)c2F)SC1=S` gave an MIC (Staphylococcus aureus [1]) greater than 128 µg/mL, an MIC (Enterococcus faecalis) greater than 128 µg/mL and an MIC (Escherichia coli) greater than 128 µg/mL. The MIC (Pseudomonas aeruginosa) was greater than 128 µg/mL.
Compound `COc1cc(/C=C2\SC(=S)N(CC(=O)O)C2=O)cc(OC)c1OC` has an MIC (Staphylococcus aureus [1]) greater than 128 µg/mL, an MIC (Enterococcus faecalis) greater than 128 µg/mL and an MIC (Escherichia coli) greater than 128 µg/mL. It also gave an MIC (Pseudomonas aeruginosa) greater than 128 µg/mL.
`COc1cc(C=C2C(=O)NC(=S)NC2=O)cc(OC)c1OC` was tested, and the MIC (Staphylococcus aureus [1]) was greater than 128 µg/mL, the MIC (Enterococcus faecalis) was greater than 128 µg/mL and the MIC (Escherichia coli) was greater than 128 µg/mL. For the same compound, the MIC (Pseudomonas aeruginosa) was greater than 128 µg/mL.
`COc1cc(/C=C2\SC(=S)NC2=O)cc(OC)c1OC` gave an MIC (Staphylococcus aureus [1]) of 8 µg/mL (≈ 25.7 µM), an MIC (Enterococcus faecalis) greater than 128 µg/mL and an MIC (Staphylococcus aureus [2]) of 128 µg/mL (≈ 411 µM). It also gave an MBC (Streptococcus pneumoniae) greater than 128 µg/mL, an MBC (Streptococcus pyogenes) greater than 128 µg/mL and an MIC (Escherichia coli) greater than 128 µg/mL. It also gave an MIC (Pseudomonas aeruginosa) greater than 128 µg/mL.
